Data reported in US10597388B2, “Pyridazinone herbicides” (FMC CORPORATION, priority 2014, dated 2020).

Legend:
Type in all cases: in vivo
[1] = system: kochia (Kochia scoparia); experiment: Test C greenhouse herbicide test, postemergence
Outline: (§1)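 Seedlings are raised in pots of peat moss–vermiculite medium with starter nutrients, then receive postemergence test chemical at the 1- to 4-leaf stage. They are kept in the greenhouse 13 to 15 d and scored visually versus controls, 0 meaning no effect and 100 complete control.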

[2] = system: oat, wild (wild oat, Avena fatua); experiment: Test C greenhouse herbicide test, postemergence
Outline: as §1

[3] = system: oilseed rape (Brassica napus); experiment: Test C greenhouse herbicide test, pre- and postemergence
Outline: (§2)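 Greenhouse pots; pre-em on seeded loam:sand blend, post-em on 2–18 cm plants (1–4 leaf) in sphagnum peat/vermiculite medium. Formulation: non-phytotoxic solvent + surfactant. Read-out: visual % control (0–100) vs controls at 13–15 d.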

[4] = system: crabgrass, large (large crabgrass, Digitaria sanguinalis); experiment: as above
Outline: as §2

[5] = system: pigweed (Amaranthus retroflexus); experiment: Test A greenhouse herbicide test, pre- and postemergence
Outline: (§3)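 Visual injury ratings, 0 (no effect) to 100 (complete control), versus untreated plants after roughly 10 d in a greenhouse. Compounds, formulated in a surfactant-containing non-phytotoxic solvent, were sprayed on loam–sand soil after sowing (pre) or on one- to two-leaf plants 2–10 cm tall (post).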

[6] = system: kochia (Kochia scoparia); experiment: as above
Outline: as §3

[7] = system: wheat (Triticum aestivum); experiment: as above; conditions: Postemergence
Outline: as §3

[8] = system: ragweed (common ragweed, Ambrosia elatior); experiment: as above
Outline: as §3

[9] = system: corn (Zea mays); experiment: as above; conditions: Postemergence
Outline: as §3

[10] = system: barnyardgrass (Echinochloa crus-galli); experiment: as above
Outline: as §3

[11] = system: blackgrass (Alopecurus myosuroides); experiment: Test A greenhouse herbicide test, postemergence
Outline: (§4)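 Scores are visual injury ratings from 0 (no effect) to 100 (complete control) versus untreated plants, taken roughly 10 d after treatment in the greenhouse. Treatment was postemergence, on one- to two-leaf plants 2–10 cm high growing in a loam soil/sand mix.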

[12] = system: galium (catchweed bedstraw, Galium aparine); experiment: Test A greenhouse herbicide test, postemergence
Outline: as §4

[13] = Postemergence, 31 g ai/ha, scale 0 to 100 (0 no effect, 100 complete control)
[14] = Postemergence, 62 g ai/ha, 0 to 100 scale (0 no effect, 100 complete control)
[15] = Postemergence, 250 g ai/ha, scale 0 to 100, 0 is no effect, 100 is complete control
[16] = postemergence, 125 g ai/ha, scale 0 to 100, 0 no effect, 100 complete control
[17] = Postemergence, 125 g ai/ha, 0 to 100 scale, 0 no effect, 100 complete control
[18] = Postemergence, 500 g ai/ha, visual rating after approx. 10 d, 0 to 100 scale (0 no effect, 100 complete control)
[19] = Preemergence, 125 g ai/ha, visual injury rating, 0 to 100 scale (0 no effect, 100 complete control), approx. 10 d
[20] = Preemergence, 500 g ai/ha, 0 to 100 scale where 0 is no effect and 100 is complete control
[21] = 125 g ai/ha, 0 to 100 scale, 0 no effect, 100 complete control
[22] = 500 g ai/ha, visual rating after approx. 10 d, 0 to 100 scale (0 no effect, 100 complete control)
[23] = Preemergence, 31 g ai/ha, scale 0 to 100, 0 is no effect, 100 is complete control
[24] = Preemergence, 62 g ai/ha, scale 0 to 100, 0 is no effect, 100 is complete control
[25] = Preemergence, 125 g ai/ha, scale 0 to 100, 0 is no effect, 100 is complete control
[26] = Preemergence, 250 g ai/ha, scale 0 to 100 (0 no effect, 100 complete control)

In the case of `CC(=O)Oc1c(C)nn(C)c(=O)c1-c1c([N+](=O)[O-])ccc2ccccc12` [Compound 164], the “Plant response rating, Kochia” value [1, 13] is reported as 60, the “Kochia plant response rating” value [1, 14] is reported as 85 and the “Plant response rating, Kochia” value [1, 15] is reported as 95. For the same compound, the “Kochia plant response rating” value [1, 16] was 90, the “Plant response rating, Oat, Wild” value [2, 13] was 35 and the “Oat, Wild plant response rating” value [2, 14] was 45. The “Plant response rating, Oat, Wild” value [2, 15] was 80, the “Oat, Wild plant response rating” value [2, 16] was 70 and the “Plant response rating, Oilseed Rape” value [3, 13] was 0. For the same compound, the “Oilseed Rape plant response rating” value [3, 14] was 0, the “Plant response rating, Oilseed Rape” value [3, 15] was 0 and the “Oilseed Rape plant response rating” value [3, 16] was 0. For the same compound, the “Plant response rating, Crabgrass, Large” value [4, 13] was 0, the “Crabgrass, Large plant response rating” value [4, 14] was 5 and the “Plant response rating, Crabgrass, Large” value [4, 15] was 10. The “Crabgrass, Large plant response rating” value [4, 16] was 10, the “Plant response rating, Pigweed” value [5, 17] was 80 and the “Plant response rating, Pigweed” value [5, 18] was 80. For the same compound, the “Plant response rating, Pigweed” value [5, 19] was 80, the “Plant response rating, Pigweed” value [5, 20] was 100 and the “Plant response rating, Kochia” value [6, 17] was 60. For the same compound, the “Plant response rating, Kochia” value [6, 18] was 90, the “Plant response rating, Kochia” value [6, 19] was 60 and the “Plant response rating, Kochia” value [6, 20] was 100. For the same compound, the “Plant response rating, Wheat” value [7, 21] was 0, the “Plant response rating, Wheat” value [7, 22] was 0 and the “Plant response rating, Ragweed” value [8, 17] was 70. The “Plant response rating, Ragweed” value [8, 18] was 100, the “Plant response rating, Ragweed” value [8, 19] was 50 and the “Plant response rating, Ragweed” value [8, 20] was 90. For the same compound, the “Plant response rating, Corn” value [9, 21] was 0, the “Plant response rating, Corn” value [9, 22] was 20 and the “Plant response rating, Barnyardgrass” value [10, 17] was 20. For the same compound, the “Plant response rating, Barnyardgrass” value [10, 18] was 20, the “Plant response rating, Barnyardgrass” value [10, 19] was 10 and the “Plant response rating, Barnyardgrass” value [10, 20] was 20. The “Plant response rating, Blackgrass” value [11, 21] was 20, the “Plant response rating, Blackgrass” value [11, 22] was 40 and the “Plant response rating, Galium” value [12, 21] was 80. The “Plant response rating, Galium” value [12, 22] was 100.
In the case of `CSCC(=O)Oc1c(C)nn(C)c(=O)c1-c1cccc2ccccc12` [Compound 171], the “Plant response rating, Kochia” value [1, 13] is reported as 95, the “Kochia plant response rating” value [1, 14] is reported as 95 and the “Plant response rating, Kochia” value [1, 15] is reported as 98. The “Kochia plant response rating” value [1, 16] was 98, the “Plant response rating, Oat, Wild” value [2, 13] was 65 and the “Oat, Wild plant response rating” value [2, 14] was 90. For the same compound, the “Plant response rating, Oat, Wild” value [2, 15] was 95, the “Oat, Wild plant response rating” value [2, 16] was 90 and the “Plant response rating, Oilseed Rape” value [3, 13] was 0. For the same compound, the “Oilseed Rape plant response rating” value [3, 14] was 0, the “Plant response rating, Oilseed Rape” value [3, 15] was 30 and the “Plant response rating, Oilseed Rape” value [3, 23] was 0. For the same compound, the “Plant response rating, Oilseed Rape” value [3, 24] was 5, the “Plant response rating, Oilseed Rape” value [3, 25] was 50 and the “Oilseed Rape plant response rating” value [3, 26] was 90. For the same compound, the “Oilseed Rape plant response rating” value [3, 16] was 0, the “Plant response rating, Crabgrass, Large” value [4, 13] was 5 and the “Crabgrass, Large plant response rating” value [4, 14] was 20. The “Plant response rating, Crabgrass, Large” value [4, 15] was 55, the “Plant response rating, Crabgrass, Large” value [4, 23] was 0 and the “Plant response rating, Crabgrass, Large” value [4, 24] was 45. For the same compound, the “Plant response rating, Crabgrass, Large” value [4, 25] was 60, the “Crabgrass, Large plant response rating” value [4, 26] was 80 and the “Crabgrass, Large plant response rating” value [4, 16] was 40. The “Plant response rating, Pigweed” value [5, 17] was 90, the “Plant response rating, Pigweed” value [5, 18] was 100 and the “Plant response rating, Pigweed” value [5, 19] was 90. For the same compound, the “Plant response rating, Pigweed” value [5, 20] was 100, the “Plant response rating, Kochia” value [6, 17] was 100 and the “Plant response rating, Kochia” value [6, 18] was 100. For the same compound, the “Plant response rating, Kochia” value [6, 19] was 100, the “Plant response rating, Kochia” value [6, 20] was 100 and the “Plant response rating, Wheat” value [7, 21] was 30. The “Plant response rating, Wheat” value [7, 22] was 70, the “Plant response rating, Ragweed” value [8, 17] was 100 and the “Plant response rating, Ragweed” value [8, 18] was 100. The “Plant response rating, Ragweed” value [8, 19] was 70, the “Plant response rating, Ragweed” value [8, 20] was 90 and the “Plant response rating, Corn” value [9, 21] was 20. The “Plant response rating, Corn” value [9, 22] was 40, the “Plant response rating, Barnyardgrass” value [10, 17] was 40 and the “Plant response rating, Barnyardgrass” value [10, 18] was 90. For the same compound, the “Plant response rating, Barnyardgrass” value [10, 19] was 70, the “Plant response rating, Barnyardgrass” value [10, 20] was 100 and the “Plant response rating, Blackgrass” value [11, 21] was 80. For the same compound, the “Plant response rating, Blackgrass” value [11, 22] was 90, the “Plant response rating, Galium” value [12, 21] was 90 and the “Plant response rating, Galium” value [12, 22] was 100.
With `Cc1ccc2ccccc2c1-c1c(OC(=O)N2CCOCC2)c(Br)nn(C)c1=O` [Compound 176] the “Plant response rating, Kochia” value [1, 13] was 90, the “Kochia plant response rating” value [1, 14] was 90 and the “Plant response rating, Kochia” value [1, 15] was 100. For the same compound, the “Kochia plant response rating” value [1, 16] was 95, the “Plant response rating, Oat, Wild” value [2, 13] was 0 and the “Oat, Wild plant response rating” value [2, 14] was 5. For the same compound, the “Plant response rating, Oat, Wild” value [2, 15] was 35, the “Oat, Wild plant response rating” value [2, 16] was 10 and the “Plant response rating, Oilseed Rape” value [3, 13] was 95. The “Oilseed Rape plant response rating” value [3, 14] was 95, the “Plant response rating, Oilseed Rape” value [3, 15] was 95 and the “Oilseed Rape plant response rating” value [3, 16] was 95. The “Plant response rating, Crabgrass, Large” value [4, 13] was 10, the “Crabgrass, Large plant response rating” value [4, 14] was 5 and the “Plant response rating, Crabgrass, Large” value [4, 15] was 30. For the same compound, the “Crabgrass, Large plant response rating” value [4, 16] was 20, the “Plant response rating, Pigweed” value [5, 17] was 30 and the “Plant response rating, Pigweed” value [5, 18] was 90. The “Plant response rating, Pigweed” value [5, 19] was 0, the “Plant response rating, Pigweed” value [5, 20] was 90 and the “Plant response rating, Kochia” value [6, 17] was 30. The “Plant response rating, Kochia” value [6, 18] was 70, the “Plant response rating, Kochia” value [6, 19] was 0 and the “Plant response rating, Kochia” value [6, 20] was 20. The “Plant response rating, Wheat” value [7, 21] was 0, the “Plant response rating, Wheat” value [7, 22] was 0 and the “Plant response rating, Ragweed” value [8, 17] was 40. The “Plant response rating, Ragweed” value [8, 18] was 100, the “Plant response rating, Ragweed” value [8, 19] was 20 and the “Plant response rating, Ragweed” value [8, 20] was 70. The “Plant response rating, Corn” value [9, 21] was 0, the “Plant response rating, Corn” value [9, 22] was 0 and the “Plant response rating, Barnyardgrass” value [10, 17] was 0. The “Plant response rating, Barnyardgrass” value [10, 18] was 10, the “Plant response rating, Barnyardgrass” value [10, 19] was 0 and the “Plant response rating, Barnyardgrass” value [10, 20] was 10. The “Plant response rating, Blackgrass” value [11, 21] was 30, the “Plant response rating, Blackgrass” value [11, 22] was 30 and the “Plant response rating, Galium” value [12, 21] was 90. The “Plant response rating, Galium” value [12, 22] was 100.
